Where two headings read alike, the source gives them in different places.
Legend:
[1] = system: erythroid cells isolated from the bone marrow of laboratory mice males; settings: feed with succinic acid 20 mg/kg body wt., not irradiated, norm 5.0±1.0
Experimental: The test for genotoxicity was performed on young laboratory mice males (18-20 g; 6 animals in each group). […] The control animals were given water.

Wistar rat males = settings: for adaptogenic properties, conclusion in words: 6-hour immobilization stress, Wistar rats; for Eosinophils, 6 h after / Lymphocytes, 6 h after / Number of leukocytes in 1 μl of blood, 6 h after / Segmentated cells, 6 h after: 6 h after immobilization; for Eosinophils, 6 h after / Lymphocytes, 6 h after / Number of leukocytes in 1 μl of blood, 6 h after / Segmentated cells, 6 h after / Eosinophils, before / Lymphocytes, before / Number of leukocytes in 1 μl of blood, before / Segmentated cells, before: 1.5 ml of 1% succinic acid perorally 10 min prior; for Eosinophils, before / Lymphocytes, before / Number of leukocytes in 1 μl of blood, before / Segmentated cells, before: at the moment of immobilization
Experimental: Examples, illustrating the method invented, are presented below. […] SA is tested on rats endured an immobilization stress; the parameter tested is lymphocytic composition of blood, which is determined before and after stress in a blood smear taken from the caudal vein. […] A detailed description of the testing technique is given in Example 13.
The animals were fixed while lying flat on their back, with their legs secured. […] Blood was taken from the caudal vein: 10 μl for counting blood corpuscles and 20 μl for preparing a smear with its subsequent staining by Romanovsky-Giemsa).
First group: 10 min prior immobilization, the animals were injected (perorally, with the help of a stomach pump) with 1.5 ml of 1% starch solution. […] Blood was taken from the caudal vein at the moment of immobilization and 6 hours later, and stained blood smears were prepared to calculate the leukogram.

[2] = system: patients with cardiac insufficiency; settings: for patients of functional class I, day 30 / patients of functional class II, day 30 / patients of functional class III, day 30 / patients of functional class IV, day 30 / patients of functional class I, day 60 / patients of functional class II, day 60 / patients of functional class III, day 60 / patients of functional class IV, day 60 / patients of functional class I, day 90 / patients of functional class II, day 90 / patients of functional class III, day 90 / patients of functional class IV, day 90: 100 mg twice per day with standard therapy; for patients of functional class I, day 30 / patients of functional class II, day 30 / patients of functional class III, day 30 / patients of functional class IV, day 30: after 30 days; for patients of functional class I, day 60 / patients of functional class II, day 60 / patients of functional class III, day 60 / patients of functional class IV, day 60: after 60 days; for patients of functional class I, day 90 / patients of functional class II, day 90 / patients of functional class III, day 90 / patients of functional class IV, day 90: after 90 days; for cardiotonic properties / dynamics of functional class, conclusion in words / patients of functional class I, day 0 / patients of functional class II, day 0 / patients of functional class III, day 0 / patients of functional class IV, day 0: 100 mg twice per day, 3 months; for patients of functional class I, day 0 / patients of functional class II, day 0 / patients of functional class III, day 0 / patients of functional class IV, day 0: with standard therapy, before treatment
Experimental: The test for cardiotonic activity of product samples was performed by measuring the dynamics of alteration of the functional class of cardiac failure. The functional class can be determined quite accurately by analyzing the everyday life activities according to a specific activity scale. The authors of this technique suppose that the criteria developed by NYHA (New York Heart Association) cannot provide accurate determination of functional class, since widely used terms, such as “everyday physical activity”, “sub-everyday activity” are not specific. On the basis of multiple tests, in which patients exercised on a treadmill, the authors calculated a scale of metabolic expenses for each kind of life activity (see Goldman L., Hashimoto B., Cook F. et al., Comparative reproducibility and validity of systems for assessing cardiovascular functional class: advantages of a new specific activity scale (1981) Circulation 64 (6):1227-34). This inquiry is designed to be used by medical personnel, interviewing a patient. After calculating the sum of possible energy expenses, the functional class of the patient is determined according to the summary criteria of the specific activity scale (Table 6).
In the tests, the patient groups were formed so that the people of the same functional class were equally distributed among different groups. Severe patients (of IV functional class; those having oncological diseases or suffered myocardial infarction/stroke to the brain 60 days or less before) were not admitted to the tests. The distribution of patients among groups was governed by a random number generator. The tests were carried out by the following protocol. Each patient took 100 mg of the preparation twice per day (in the morning and after lunch) during 3 months—against the background of a standard therapy administered by a physician. […] All the samples and placebo were encoded before sending into the clinic, so none of those involved into the tests (patients, physicians, medical personnel and the manager of tests) was aware of the nature of samples.
The functional class of patients was determined several times: at the beginning of tests (before the formation of test groups) and after 30, 60 and 90 days of treatment with the test samples. The estimation was performed on the basis of the activity scale (Table 7).

white rat females = settings: in vivo; for Total died: 14 days
[3] = compared with “natural” SA
[4] = system: erythroid cells isolated from the bone marrow of gamma-irradiated laboratory mice males; test: Radioprotective properties (micronucleus test after gamma irradiation); settings: for radioprotective effect, conclusion in words: gamma rays 1.3 Gy, 20 mg/kg body wt., 48 h, 20 mg/kg; for Number of micronuclei per 2000 cells (radioprotective properties): mice irradiated with gamma rays 1.3 Gy, then fed 48 h succinic acid 20 mg/kg body wt., critical value 16±2

| SMILES | Number of micronuclei per 2000 cells (genotoxicity) [1] | adaptogenic properties, conclusion in words (Wistar rat males) | patients of functional class I, day 30 [2] | patients of functional class II, day 30 [2] | patients of functional class III, day 30 [2] | patients of functional class IV, day 30 [2] | patients of functional class I, day 60 [2] | patients of functional class II, day 60 [2] | patients of functional class III, day 60 [2] | patients of functional class IV, day 60 [2] | patients of functional class I, day 90 [2] | patients of functional class II, day 90 [2] | patients of functional class III, day 90 [2] | patients of functional class IV, day 90 [2] | cardiotonic properties / dynamics of functional class, conclusion in words [2] | patients of functional class I, day 0 [2] | patients of functional class II, day 0 [2] | patients of functional class III, day 0 [2] | patients of functional class IV, day 0 [2] | Total died (white rat females; female, 5000 mg/kg) | further results |
| --- | --- | --- | --- | --- | --- | --- | --- | --- | --- | --- | --- | --- | --- | --- | --- | --- | --- | --- | --- | --- | --- |
| O=C(O)CCC(=O)O [Example 2, succinic acid, reference compound] | 5.5 ± 1.0 | slight adaptogenic properties | 8 | 7 | 5 | 0 | 8 | 8 | 4 | 0 | 8 | 8 | 4 | 0 | slight positive dynamics | 8 | 7 | 5 | 0 | 0 | Eosinophils, 6 h after (Wistar rat males; listed as Ex. 2): 0%; Lymphocytes, 6 h after (Wistar rat males; listed as Ex. 2): 70 ± 5%; Number of leukocytes in 1 μl of blood, 6 h after (Wistar rat males; listed as Ex. 2): 7700; Segmentated cells, 6 h after (Wistar rat males; listed as Ex. 2): 30 ± 3%; Eosinophils, before (Wistar rat males; listed as Ex. 2): 2 ± 2%; Lymphocytes, before (Wistar rat males; listed as Ex. 2): 76 ± 4%; Number of leukocytes in 1 μl of blood, before (Wistar rat males; listed as Ex. 2): 5700; Segmentated cells, before (Wistar rat males; listed as Ex. 2): 21 ± 4%; animals died, extra test with doubled dose (white rat females; 10000 mg/kg): Not a single animal died; biological activity, overall conclusion in words [3]: do not possess high biological activity; radioprotective effect, conclusion in words [4]: no evident radioprotective effect; Number of micronuclei per 2000 cells (radioprotective properties) [4]: 22.5 ± 1.0 |
| O=C(O)CCC(=O)O [Example 3, succinic acid, reference compound] | 5.0 ± 0.6 | at the “borderline” | 9 | 7 | 4 | 0 | 9 | 7 | 4 | 0 | 10 | 7 | 3 | 0 | more expressed | 8 | 7 | 5 | 0 | 2 | Eosinophils, 6 h after (Wistar rat males; listed as Ex. 3): 0.5 ± 4%; Lymphocytes, 6 h after (Wistar rat males; listed as Ex. 3): 73 ± 5%; Number of leukocytes in 1 μl of blood, 6 h after (Wistar rat males; listed as Ex. 3): 7100; Segmentated cells, 6 h after (Wistar rat males; listed as Ex. 3): 26 ± 3%; Eosinophils, before (Wistar rat males; listed as Ex. 3): 2 ± 6%; Lymphocytes, before (Wistar rat males; listed as Ex. 3): 76 ± 6%; Number of leukocytes in 1 μl of blood, before (Wistar rat males; listed as Ex. 3): 5700; Segmentated cells, before (Wistar rat males; listed as Ex. 3): 22 ± 3%; died, 14 day (white rat females; female, 5000 mg/kg, 14 day): 2; biological activity, overall conclusion in words [3]: higher activity but it is far from that of “natural” SA; radioprotective effect, conclusion in words [4]: close to the dividing line; Number of micronuclei per 2000 cells (radioprotective properties) [4]: 16.0 ± 1.6 |

From patent publication US8546611B2 (priority 2008, dated 2013)
